Test results published in US9993479B2, “Trk-inhibiting compound” (ONO PHARMACEUTICAL CO., LTD., priority 2013, dated 2018).

Test system: sodium monoiodoacetate-induced model rats
Assay: Analgesic effect on sodium monoiodoacetate-induced model rats
Type: in vivo, rat
Settings: MIA-induced model rats
[1] = test substance 0.1, 0.3 or 1 mg/kg orally twice a day day 14-23 and 3 h before measurement on day 24, Table 8 (positive control morphine)
[2] = test substance 0.1, 0.3 or 1 mg/kg orally twice a day day 14-23 and 3 h before measurement on day 24, Table 7 (positive control tramadol)

Row | SMILES | Percent improvement (%) [1] | Percent improvement (%) [2] | other results
1 | Cc1cccc(-c2ccc(C(F)(F)F)cc2NC(=O)Nc2cnc(Oc3ccc(-c4cnn5ccc(N(C)C)nc45)cc3)nc2)c1 [Example 21-73, 1-(2-{4-[5-(dimethylamino)pyrazolo[1,5-a]pyrimidin-3-yl]phenoxy}-5-pyrimidinyl)-3-[3′-methyl-4-(trifluoromethyl)-2-biphenylyl]urea] | 62% |  | 
2 | COc1ccn2ncc(-c3ccc(Oc4ncc(NC(=O)Nc5cc(C(F)(F)F)ccc5-c5cccnc5)cn4)cc3)c2n1 [Example 21-9, 1-(2-(4-(5-methoxypyrazolo[1,5-a]pyrimidin-3-yl)phenoxy)pyrimidin-5-yl)-3-(2-(pyridin-3-yl)-5-(trifluoromethyl)phenyl)urea] |  | 64% | 
3 | CN(C)c1ccn2ncc(-c3ccc(Oc4ncc(NC(=O)Nc5cc(C(F)(F)F)ccc5-c5ccnn5C)cn4)cc3)c2n1 [Example 21-51, 1-(2-{4-[5-(dimethylamino)pyrazolo[1,5-a]pyrimidin-3-yl]phenoxy}-5-pyrimidinyl)-3-[2-(1-methyl-1H-pyrazol-5-yl)-5-(trifluoromethyl)phenyl]urea] | 68% |  | 
4 | CN(C)c1ccn2ncc(-c3ccc(Oc4ncc(NC(=O)Nc5cc(C(F)(F)F)ccc5-c5ccccc5)cn4)cc3)c2n1 [Example 21-70, 1-(2-{4-[5-(dimethylamino)pyrazolo[1,5-a]pyrimidin-3-yl]phenoxy}-5-pyrimidinyl)-3-[4-(trifluoromethyl)-2-biphenylyl]urea] | 61% |  | 
5 | Nc1ncc(F)cc1-c1ccc(Oc2ncc(NC(=O)Nc3cc(C(F)(F)F)ccc3-c3cccnc3)cn2)cc1 [Example 14-6, 1-(2-(4-(2-amino-5-fluoropyridin-3-yl)phenoxy)pyrimidin-5-yl)-3-(2-(pyridin-3-yl)-5-(trifluoromethyl)phenyl)urea] | 53% |  | 
6 | CN(C)c1ccn2ncc(-c3ccc(Oc4ncc(NC(=O)Nc5cc(C(F)(F)F)ccc5-c5cccnc5)cn4)cc3)c2n1 [Example 21-37, 1-(2-{4-[5-(dimethylamino)pyrazolo[1,5-a]pyrimidin-3-yl]phenoxy}-5-pyrimidinyl)-3-[2-(3-pyridinyl)-5-(trifluoromethyl)phenyl]urea] | 67% |  | 
7 | Cc1cn(-c2ccc(C(F)(F)F)cc2NC(=O)Nc2cnc(Oc3ccc(-c4cc(Cl)cnc4N)cc3)nc2)nn1 [Example 8-1, 1-(2-(4-(2-amino-5-chloropyridin-3-yl)phenoxy)pyrimidin-5-yl)-3-(2-(4-methyl-1H-1,2,3-triazol-1-yl)-5-(trifluoromethyl)phenyl)urea] |  | 60% | 
8 | Nc1ncc(Cl)cc1-c1ccc(Oc2ncc(NC(=O)Nc3cc(C(F)(F)F)ccc3-c3ccccc3)cn2)cc1 [Example 15-55, 1-{2-[4-(2-amino-5-chloro-3-pyridinyl)phenoxy]-5-pyrimidinyl}-3-[4-(trifluoromethyl)-2-biphenylyl]urea] | 62% |  | 
9 | Nc1ncc(Cl)cc1-c1ccc(Oc2ncc(NC(=O)Nc3cc(C(F)(F)F)ccc3-n3cccn3)cn2)cc1 [Example 7, 1-(2-(1H-pyrazol-1-yl)-5-(trifluoromethyl)phenyl)-3-(2-(4-(2-amino-5-chloropyridin-3-yl)phenoxy)pyrimidin-5-yl)urea] |  | 61% | 
10 | COc1cccc(C2(O)CCCCC2CN(C)C)c1 (stereo not shown) [Tramadol, tramadol, reference compound] |  |  | Percent improvement (%) (tramadol 10 mg/kg subcutaneously 1 hour before measurement on day 24, Table 7): 43%
11 | Nc1ncc(Cl)cc1-c1ccc(Oc2ncc(NC(=O)Nc3ccc(C(F)(F)F)cc3C(F)(F)F)cn2)cc1 [Example 15-77, 1-{2-[4-(2-amino-5-chloro-3-pyridinyl)phenoxy]-5-pyrimidinyl}-3-[2,4-bis(trifluoromethyl)phenyl]urea] | 55% |  | 
12 | Nc1ncc(C(F)(F)F)cc1-c1ccc(Oc2ncc(NC(=O)Nc3cc(C(F)(F)F)ccc3-n3cc(Cl)cn3)cn2)cc1 [Example 15-87, 1-(2-{4-[2-amino-5-(trifluoromethyl)-3-pyridinyl]phenoxy}-5-pyrimidinyl)-3-[2-(4-chloro-1H-pyrazol-1-yl)-5-(trifluoromethyl)phenyl]urea] | 57% |  | 
13 | Nc1ncc(Cl)cc1-c1ccc(Oc2ncc(NC(=O)Nc3cc(C(F)(F)F)ccc3-n3cc(Cl)cn3)cn2)cc1 [Example 15-63, 1-{2-[4-(2-amino-5-chloro-3-pyridinyl)phenoxy]-5-pyrimidinyl}-3-[2-(4-chloro-1H-pyrazol-1-yl)-5-(trifluoromethyl)phenyl]urea] | 53% |  | 
14 | CS(=O)(=O)c1ccc(C(F)(F)F)cc1NC(=O)Nc1cnc(Oc2ccc(-c3cc(Cl)cnc3N)cc2)nc1 [Example 15-104, 1-{2-[4-(2-amino-5-chloro-3-pyridinyl)phenoxy]-5-pyrimidinyl}-3-[2-(methylsulfonyl)-5-(trifluoromethyl)phenyl]urea] | 54% |  | 
15 | Nc1ncc(F)cc1-c1ccc(Oc2ncc(NC(=O)Nc3cc(C(F)(F)F)ccc3-n3ccnn3)cn2)cc1 [Example 14-5, 1-(2-(1H-1,2,3-triazol-1-yl)-5-(trifluoromethyl)phenyl)-3-(2-(4-(2-amino-5-fluoropyridin-3-yl)phenoxy)pyrimidin-5-yl)urea] |  | 47% | 
16 | CS(=O)(=O)c1ccc(C(F)(F)F)cc1NC(=O)Nc1cnc(Oc2ccc(-c3cc(C(F)(F)F)cnc3N)cc2)nc1 [Example 15-98, 1-(2-{4-[2-amino-5-(trifluoromethyl)-3-pyridinyl]phenoxy}-5-pyrimidinyl)-3-[2-(methylsulfonyl)-5-(trifluoromethyl)phenyl]urea] | 57% |  | 
17 | Nc1ncc(C(F)(F)F)cc1-c1ccc(Oc2ncc(NC(=O)Nc3cc(C(F)(F)F)ccc3-n3ccc(C(F)(F)F)n3)cn2)cc1 [Example 15-52, 1-(2-{4-[2-amino-5-(trifluoromethyl)-3-pyridinyl]phenoxy}-5-pyrimidinyl)-3-{5-(trifluoromethyl)-2-[3-(trifluoromethyl)-1H-pyrazol-1-yl]phenyl}urea] | 60% |  | 
18 | Nc1ncc(Cl)cc1-c1ccc(Oc2ncc(NC(=O)Nc3ccc(C(F)(F)F)cc3Cl)cn2)cc1 [Example 15-6, 1-(2-(4-(2-amino-5-chloropyridin-3-yl)phenoxy)pyrimidin-5-yl)-3-(2-chloro-4-(trifluoromethyl)phenyl)urea] |  | 51% | 
19 | O=C(Nc1cnc(Oc2ccc(-c3cnn4cccnc34)cc2)nc1)Nc1cc(C(F)(F)F)ccc1-c1cccnc1 [Example 21-13, 1-(2-(4-(pyrazolo[1,5-a]pyrimidin-3-yl)phenoxy)pyrimidin-5-yl)-3-(2-(pyridin-3-yl)-5-(trifluoromethyl)phenyl)urea] |  | 66% | 
